Measured values: ChEMBL document CHEMBL4428037 (J Med Chem, 2016)
Active and inactive are the calls of the source. No cut-off for these calls is given here.

Assays:
HUVEC [1] = assay: Inhibition of capillary tube formation in HUVEC assessed as reduction in tube-like structures formation at 40 nM incubated for 8 hrs by fluorescence microscopy based 3D-matrigel assay; assay type: functional; conditions: Homo sapiens
A549 [2] = assay: Reduction in p-cdc2 expression in human A549 cells incubated for 24 hrs by Western blotting; assay type: functional, cell-based
HUVEC [3] = assay: Inhibition of capillary tube formation in HUVEC assessed as reduction in tube-like structures formation at 20 nM incubated for 8 hrs by fluorescence microscopy based 3D-matrigel assay; assay type: functional; conditions: Homo sapiens
A549 [4] = assay: Induction of apoptosis in human A549 cells assessed as early apoptotic cells level at 10 nM incubated for 24 hrs by Annexin V-FITC/PI staining based FACS flow cytometry (reference value: 0.65%); assay type: functional
A549 [5] = assay: Inhibition of colony formation in human A549 cells at 10 nM incubated for 9 days by crystal violet staining based assay; assay type: functional; conditions: A549, 216 h
[6] = system: Non-small cell lung cancer cell line; assay: Antitumor activity against human NSCLC xenografted in Balb/c-nu mouse assessed as inhibition of tumor growth at 50 mg/kg, ip dosed every day for 21 consecutive days and measured every 3 days; assay type: functional; conditions: 72 h, read-out: TGI
A549 [7] = assay: Induction of apoptosis in human A549 cells assessed as induction of cell shrinkage at 40 nM incubated for 24 hrs microscopy; assay type: functional, cell-based
HUVEC [8] = assay: Inhibition of capillary tube formation in HUVEC assessed as reduction in tube-like structures formation at 10 nM incubated for 8 hrs by fluorescence microscopy based 3D-matrigel assay; assay type: functional; conditions: Homo sapiens
[9] = molecular target: T1, Tubulin alpha (Homo sapiens) (UniProt P0DPH7+P68366+Q71U36+P68363+Q9BQE3+Q6PEY2+A6NHL2+Q9NY65); assay: Inhibition of alpha tubulin polymerization in human A549 cells assessed as induction of microtubule network dis-organization at 40 nM by Immunofluorescent staining based fluorescence microscopy; assay type: cell-based
A549 [10] = assay: Induction of apoptosis in human A549 cells assessed as live cells level at 20 nM incubated for 24 hrs by Annexin V-FITC/PI staining based FACS flow cytometry (reference value: 96.83%); assay type: functional
[11] = molecular target: T1, Tubulin alpha (Homo sapiens); assay: Inhibition of alpha tubulin polymerization in human A549 cells assessed as induction of cell border shrinkage of microtubules at 40 nM by Immunofluorescent staining based fluorescence microscopy
HepG2 = assay: Growth inhibition of human HepG2 cells incubated for 72 hrs by MTT assay; assay type: functional, cell-based; conditions: HepG2, 72 h

inhibition [9]: Active | inhibition [11]: Active | IC50 (HepG2): 26 nM
Compound: CCOc1cccc(Nc2nn(C)c3c2Cc2cc(OCC)c(OCC(N)=O)cc2-3)c1
inhibition at 0.04 µM (HUVEC [1]): 69% | Activity (A549 [2]): Dose-dependent effect | inhibition at 0.02 µM (HUVEC [3]): 58% | Activity (A549 [4]): 1.01% | inhibition at 0.01 µM (A549 [5]): 91% | inhibition in vivo at 50 mg/kg [6]: 59.1% | Activity (A549 [7]): Active | inhibition at 0.01 µM (HUVEC [8]): 39% | Activity (A549 [10]): 90.81%
